# Experimental data taken from patent US20240058460A1, “METHODS AND COMPOUNDS FOR MODULATING HUNTINGTON'S DISEASE” (Design Therapeutics, Inc., priority 2022, published 2024).
# Assays:
# Format in all cases: cell-based
# [1] = test system: human HTT T allele (SNP rs362331C/T) mRNA in GM04022 fibroblasts; assay: HTT mRNA, allele-specific RT-PCR in GM04022 fibroblasts, T allele; settings: for IC50: Homo sapiens, Fibroblast, 48 hr, T allele HTT mRNA normalized to GAPDH, relative to vehicle; for GM04022 Emin 48 hr T Allele: lowest % HTT observed at 0.5 nM to 1000 nM compound
# Protocol: (§1) Molecular Biology Toolkit: • qPCR primer probe sets: • RNA input normalization was assessed utilizing human glyceraldehyde 3-phosphate dehydrogenase (hGAPDH) TaqMan assay (ThermoFisher cat #4351370) or Human Cyclophillin ([…]) TaqMan assay (ThermoFisher cat #4351372) • Total HTT detection was assessed utilizing human Htt TaqMan assay (ThermoFisher cat #4331182) • Allele-specific detection of human HTT expression in HD cells containing the SNP rs362331C/T (Exon 50): for each assay, allele-specific probes to detect the SNP variant contained locked nucleic acid bases to improve allele discrimination, as compared to unmodified DNA probes. • 362331-F (331 forward primer) • 362331-R (331 reverse primer) • 362331-C probe: TCC CTC ATC+C+AC TGT GT • 362331-T probe: CTC+A+T+C+T+A+C TGT GT • qPCR was performed using Agpath ID one-step reverse transcriptase polymerase chain reaction (RT-PCR) reagent
# (§2) Screening of HD molecules methods: GM09197 and/or GM04022 fibroblasts were cultured in T175 flasks incubated at 37° C. and 5% CO2. Once confluency was reached, the media was removed, the cells were washed with 1×PBS, and cells were dissociated using TrypLE™ Express Enzyme. Media was added to the enzyme and collected into a 15-mL conical tube and centrifuged at 500×g for 5 minutes to pellet the cells. Media and enzyme were aspirated using a serological pipette. Cells were resuspended in fresh media and counted using a Countess 3 Automated Cell Counter. Cells were plated at a density of 15,000 cells/well in a tissue culture-treated polystyrene 96-well dish and incubated at 37° C. and 5% CO2 overnight. The next day, media was removed using an 8-channel aspirator. 200 μL media/well are added back into the plate. The molecules are formulated to 1 mM and are dispensed using a Multidrop™ Pico 8 Digital Dispenser. After a 48-hour incubation with compounds, media was removed from plates, cells were washed with 1×PBS, and cells were lysed in 40 μL per well guanidinium thiocyanate buffer. RNA was isolated and purified in 382-well glass fiber column plates using chaotropic salts. Human mtHTT, wtHTT, and GAPDH mRNA were measured via RT-PCR using the ThermoFisher QuantStudio™ 7 Flex System in 384-well format. Results of HTT levels were normalized to GAPDH mRNA levels. Normalized HTT mRNA levels were expressed relative to vehicle-treated samples to assess fold change after molecule treatment.
# (§3) Emin for each compound is the lowest % HTT concentration observed within a compound concentration of 0.5 nM to 1000 nM.
# [2] = test system: human HTT T allele (SNP rs362331C/T) mRNA in GM09197 fibroblasts; assay: HTT mRNA, allele-specific RT-PCR in GM09197 fibroblasts, T allele; settings: for IC50: Homo sapiens, Fibroblast, 48 hr, T allele HTT mRNA normalized to GAPDH, relative to vehicle; for Gm09197 Emin 48 hr T Allele (%): lowest % HTT observed at 0.5 nM to 1000 nM compound
# Protocol: as §1, §2, §3
# [3] = test system: human HTT C allele (SNP rs362331C/T) mRNA in GM09197 fibroblasts; assay: HTT mRNA, allele-specific RT-PCR in GM09197 fibroblasts, C allele; settings: for GM 09197 E min 48 Hr C Allele (%): lowest % HTT observed at 0.5 nM to 1000 nM compound; for IC50: Homo sapiens, Fibroblast, 48 hr, C allele HTT mRNA normalized to GAPDH, relative to vehicle
# Protocol: as §1, §2, §3
# [4] = test system: human HTT C allele (SNP rs362331C/T) mRNA in GM04022 fibroblasts; assay: HTT mRNA, allele-specific RT-PCR in GM04022 fibroblasts, C allele; settings: for GM 04022Emin 48 hr C Allele: lowest % HTT observed at 0.5 nM to 1000 nM compound
# Protocol: as §1
# as §2, with “After a 48-hour incubation with compounds, media was removed from plates, cells were washed with 1×PBS, and cells were lysed in 40 μL per well guanidinium thiocyanate buffer. RNA was isolated and purified in 382-well glass fiber column plates using chaotropic salts.” left out, “Results of HTT levels were normalized to GAPDH mRNA levels. Normalized HTT mRNA levels were expressed relative to vehicle-treated samples to assess fold change after molecule treatment.” left out
SMILES,IC50 [1],GM04022 Emin 48 hr T Allele [1],IC50 [2],Gm09197 Emin 48 hr T Allele (%) [2],GM 09197 E min 48 Hr C Allele (%) [3],GM 04022Emin 48 hr C Allele [4],IC50 [3],"IC50 ([4]; Homo sapiens, Fibroblast, 48 hr, C allele HTT mRNA normalized to GAPDH, relative to vehicle)"
Cn1cc(NC(=O)c2nc(NC(=O)CCNC(=O)c3cc(NC(=O)c4nccn4C)cn3C)cn2C)cc1C(=O)NCCCC(=O)Nc1cn(C)c(C(=O)NCCC(=O)Nc2cc(C(=O)Nc3cn(C)c(C(=O)NCCC(=O)NCCOCCOCCOCCOCCOCCOCCOCCOCCOCCOCCOCCOCCOCCOCCOCCOc4ccc(NC(=O)c5cc6c(-c7cc(S(C)(=O)=O)ccc7Oc7ccc(F)cc7F)cn(C)c(=O)c6[nH]5)cc4)n3)n(C)c2)n1 [Compound A-2],> 1 µM,C (C<80%),0.032 µM,C (C<80%),A (A>90%),A (A>90%),,
C/C=C/Cn1cc(-c2cc(OC)c(C(=O)N3CCN(CCOCCOCCOCCOCCOCCOCCOCCOCCOCCOCCOCCOCCOCCOCCOCCNC(=O)CCNC(=O)c4nc(NC(=O)c5cc(NC(=O)CCNC(=O)c6nc(NC(=O)CCCNC(=O)c7cc(NC(=O)c8nc(NC(=O)CCNC(=O)c9cc(NC(=O)c%10nccn%10C)cn9C)cn8C)cn7C)cn6C)cn5C)cn4C)CC3)cc2OC)c2cc[nH]c2c1=O [Compound A-76],> 1 µM,A (A>90%),> 1 µM,A (A>90%),A (A>90%),A (A>90%),> 1 µM,> 1 µM
Cc1sc2c(c1C)C(c1ccc(Cl)cc1)=N[C@@H](CC(=O)Nc1ccc(OCCOCCOCCOCCOCCOCCOCCOCCOCCNC(=O)c3cc(NC(=O)c4nc(NC(=O)[C@H](N)CCNC(=O)c5cc(NC(=O)c6nc(NC(=O)CCNC(=O)c7cc(NC(=O)c8nccn8C)cn7C)cn6C)cn5C)cn4C)cn3C)cc1)c1nnc(C)n1-2 [Compound A-35],,,> 1 µM,,A (A>90%),,> 1 µM,
Cc1noc(C)c1-c1ccc2c(c1)nc(CCc1ccc(OCCOCCOCCOCCOCCOCCOCCOCCOCCOCCOCCOCCOCCOCCOCCOCCNC(=O)CCNC(=O)c3nc(NC(=O)c4cc(NC(=O)CCNC(=O)c5nc(NC(=O)CCCNC(=O)c6cc(NC(=O)c7nc(NC(=O)CCNC(=O)c8cc(NC(=O)c9nccn9C)cn8C)cn7C)cn6C)cn5C)cn4C)cn3C)c(Cl)c1)n2C[C@H](C)N1CCOCC1 [Compound A-54],,,> 1 µM,,,,> 1 µM,
CCS(=O)(=O)Nc1ccc(Oc2ccc(F)cc2F)c(-c2cn(C)c(=O)c3[nH]c(C(=O)Nc4ccc(OCCOCCOCCOCCOCCOCCOCCOCCOCCOCCOCCOCCOCCOCCOCCOCCNC(=O)c5cc(NC(=O)c6nc(NC(=O)[C@H](N)CCNC(=O)c7cc(NC(=O)c8nc(NC(=O)CCNC(=O)c9cc(NC(=O)c%10nccn%10C)cn9C)cn8C)cn7C)cn6C)cn5C)cc4)cc23)c1 [Compound A-36],,,> 1 µM,A (A>90%),A (A>90%),,> 1 µM,
Cc1sc2c(c1C)C(c1ccc(Cl)cc1)=N[C@H](CC(=O)Nc1ccc(OCCOCCOCCOCCOCCOCCOCCOCCOCCOCCOCCOCCOCCOCCOCCOCCNC(=O)CCNC(=O)c3nc(NC(=O)c4cc(NC(=O)CCNC(=O)c5nc(NC(=O)CCCNC(=O)c6cc(NC(=O)c7nc(NC(=O)CCNC(=O)c8cc(NC(=O)c9nccn9C)cn8C)cn7C)cn6C)cn5C)cn4C)cn3C)cc1)c1nnc(C)n1-2 [Compound A-45],,,> 1 µM,C (C<80%),C (C<80%),,> 1 µM,
CCS(=O)(=O)Nc1ccc(Oc2ccc(F)cc2F)c(-c2cn(C)c(=O)c3[nH]c(C(=O)Nc4ccc(OCCOCCOCCOCCOCCOCCOCCOCCOCCOCCOCCOCCOCCOCCOCCOCCNC(=O)c5cc(NC(=O)c6nc(NC(=O)c7cc(NC(=O)[C@@H](N)CCNC(=O)c8nc(NC(=O)CCNC(=O)c9cc(NC(=O)c%10nccn%10C)cn9C)cn8C)cn7C)cn6C)cn5C)cc4)cc23)c1 [Compound A-40],,,> 1 µM,A (A>90%),A (A>90%),,> 1 µM,
CCS(=O)(=O)Nc1ccc(Oc2ccc(F)cc2F)c(-c2cn(C)c(=O)c3[nH]c(C(=O)Nc4ccc(OCCOCCOCCOCCOCCOCCOCCOCCOCCOCCOCCOCCOCCOCCOCCOCCNC(=O)CCNC(=O)c5nc(NC(=O)c6cc(NC(=O)CCNC(=O)c7nc(NC(=O)OCCNC(=O)c8cc(NC(=O)c9nc(NC(=O)CCNC(=O)c%10cc(NC(=O)c%11nccn%11C)cn%10C)cn9C)cn8C)cn7C)cn6C)cn5C)cc4)cc23)c1 [Compound A-72],,,> 1 µM,A (A>90%),,,> 1 µM,
